Results reported in PMC10174618, “Monoterpenoid aryl hydrocarbon receptor allosteric antagonists protect against ultraviolet skin damage in female mice” (Nature Communications, 2023).

Columns and labels:
Assay in all cases: biochemical
Design in all cases: KINOMEscan scanMAX active site-directed competition binding assay, percent of control, 468 kinases
Settings in all cases: competition binding, percent of control
FGFR3 = FGFR3 (Homo sapiens, UniProt P22607)
Procedure: (§1) The KINOMEscan^TM screening platform (scanMAX assay) employs a proprietary active site-directed competition binding assay that quantitatively measures the interactions between test compounds (here 100 μM S-carvone) and 468 human protein kinases. The assay was performed at Eurofins DiscoverX Corp. (Fremont, CA, USA). Blocking protein kinase C (PKC) activity was reported to inhibit the transcription of CYP1A1 but to exert no effect on the nuclear translocation of AhR[26], which was also the case here with carvones. Therefore, we tested whether carvones inhibit PKC catalytic activity. […] We also evaluated the interaction between 100 μM S-carvone and 468 human protein kinases, employing KINOMEscan^TM (scanMAX assay), a proprietary active site-directed competition binding assay. The minimal inhibitory threshold used by the screening platform KINOMEscan^TM is 35% of the control kinase activity. Among 468 kinases tested, 467 were above the 35% cutoff. Tyrosine kinase 2 TK2 (JH2 domain pseudokinase) activity was inhibited to 27% of the control activity, but this kinase is not relevant to the regulation of transcription activity (Fig. 5B; Figure S9). Overall, we excluded the possibility that the effects of carvones on AhR signaling are caused indirectly by the inhibition of the human kinome, particularly PKC.

MEK3 = target: T1, MEK3 (Homo sapiens, UniProt P46734)
T1 construct: gene MAP2K3
T1 sequence (P46734 whole entry): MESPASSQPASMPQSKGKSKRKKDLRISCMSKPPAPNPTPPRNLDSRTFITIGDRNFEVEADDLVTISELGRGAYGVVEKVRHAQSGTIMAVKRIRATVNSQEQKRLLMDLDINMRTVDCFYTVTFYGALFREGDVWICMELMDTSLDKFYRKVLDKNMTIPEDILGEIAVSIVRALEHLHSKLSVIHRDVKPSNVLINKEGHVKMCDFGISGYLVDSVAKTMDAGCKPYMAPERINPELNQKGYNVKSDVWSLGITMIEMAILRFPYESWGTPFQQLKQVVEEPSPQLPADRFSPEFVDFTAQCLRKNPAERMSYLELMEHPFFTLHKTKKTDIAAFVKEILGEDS
Procedure: as §1

ERK2 = target: T2, ERK2 (Homo sapiens, UniProt P28482)
T2 construct: gene MAPK1
T2 sequence (P28482 whole entry): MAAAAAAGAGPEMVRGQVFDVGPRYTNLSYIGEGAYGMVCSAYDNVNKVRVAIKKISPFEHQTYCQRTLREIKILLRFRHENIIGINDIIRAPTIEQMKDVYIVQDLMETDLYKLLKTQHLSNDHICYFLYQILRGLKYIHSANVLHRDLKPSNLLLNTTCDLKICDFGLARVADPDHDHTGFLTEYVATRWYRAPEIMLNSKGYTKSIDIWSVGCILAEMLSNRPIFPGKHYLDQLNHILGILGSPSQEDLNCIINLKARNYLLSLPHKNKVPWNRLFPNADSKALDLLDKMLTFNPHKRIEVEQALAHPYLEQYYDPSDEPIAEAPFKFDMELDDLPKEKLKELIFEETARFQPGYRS
Procedure: as §1

HIPK4 = HIPK4 (Homo sapiens, UniProt Q8NE63)
Procedure: as §1

PRKCD = PRKCD (Homo sapiens, UniProt Q05655)
PRKCD, sequence (Q05655 whole entry): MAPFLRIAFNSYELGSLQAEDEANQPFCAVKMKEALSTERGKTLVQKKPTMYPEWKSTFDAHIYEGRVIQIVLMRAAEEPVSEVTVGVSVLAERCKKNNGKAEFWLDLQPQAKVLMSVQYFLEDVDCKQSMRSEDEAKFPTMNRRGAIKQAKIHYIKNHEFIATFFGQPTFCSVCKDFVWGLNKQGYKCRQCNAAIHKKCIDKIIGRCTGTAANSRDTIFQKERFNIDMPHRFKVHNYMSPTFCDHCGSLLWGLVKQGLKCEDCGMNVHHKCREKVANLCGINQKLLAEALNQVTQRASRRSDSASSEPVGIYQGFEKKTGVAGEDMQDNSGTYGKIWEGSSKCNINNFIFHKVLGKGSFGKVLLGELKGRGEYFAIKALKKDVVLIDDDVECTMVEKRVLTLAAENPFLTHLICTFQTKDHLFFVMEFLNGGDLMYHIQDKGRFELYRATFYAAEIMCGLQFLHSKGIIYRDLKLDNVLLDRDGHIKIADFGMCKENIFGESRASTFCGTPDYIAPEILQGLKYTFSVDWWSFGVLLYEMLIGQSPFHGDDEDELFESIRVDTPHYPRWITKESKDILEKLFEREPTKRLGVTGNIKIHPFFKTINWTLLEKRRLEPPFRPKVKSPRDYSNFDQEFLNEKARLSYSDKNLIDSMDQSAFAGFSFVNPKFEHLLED
Procedure: as §1

TRKB = target: T3, TRKB (Homo sapiens, UniProt Q16620)
T3 construct: gene NTRK2
Procedure: as §1

PIK3CA(E545A) = PIK3CA(E545A) (Homo sapiens, UniProt P42336, E545A)
PIK3CA(E545A), sequence (P42336 whole entry E545A): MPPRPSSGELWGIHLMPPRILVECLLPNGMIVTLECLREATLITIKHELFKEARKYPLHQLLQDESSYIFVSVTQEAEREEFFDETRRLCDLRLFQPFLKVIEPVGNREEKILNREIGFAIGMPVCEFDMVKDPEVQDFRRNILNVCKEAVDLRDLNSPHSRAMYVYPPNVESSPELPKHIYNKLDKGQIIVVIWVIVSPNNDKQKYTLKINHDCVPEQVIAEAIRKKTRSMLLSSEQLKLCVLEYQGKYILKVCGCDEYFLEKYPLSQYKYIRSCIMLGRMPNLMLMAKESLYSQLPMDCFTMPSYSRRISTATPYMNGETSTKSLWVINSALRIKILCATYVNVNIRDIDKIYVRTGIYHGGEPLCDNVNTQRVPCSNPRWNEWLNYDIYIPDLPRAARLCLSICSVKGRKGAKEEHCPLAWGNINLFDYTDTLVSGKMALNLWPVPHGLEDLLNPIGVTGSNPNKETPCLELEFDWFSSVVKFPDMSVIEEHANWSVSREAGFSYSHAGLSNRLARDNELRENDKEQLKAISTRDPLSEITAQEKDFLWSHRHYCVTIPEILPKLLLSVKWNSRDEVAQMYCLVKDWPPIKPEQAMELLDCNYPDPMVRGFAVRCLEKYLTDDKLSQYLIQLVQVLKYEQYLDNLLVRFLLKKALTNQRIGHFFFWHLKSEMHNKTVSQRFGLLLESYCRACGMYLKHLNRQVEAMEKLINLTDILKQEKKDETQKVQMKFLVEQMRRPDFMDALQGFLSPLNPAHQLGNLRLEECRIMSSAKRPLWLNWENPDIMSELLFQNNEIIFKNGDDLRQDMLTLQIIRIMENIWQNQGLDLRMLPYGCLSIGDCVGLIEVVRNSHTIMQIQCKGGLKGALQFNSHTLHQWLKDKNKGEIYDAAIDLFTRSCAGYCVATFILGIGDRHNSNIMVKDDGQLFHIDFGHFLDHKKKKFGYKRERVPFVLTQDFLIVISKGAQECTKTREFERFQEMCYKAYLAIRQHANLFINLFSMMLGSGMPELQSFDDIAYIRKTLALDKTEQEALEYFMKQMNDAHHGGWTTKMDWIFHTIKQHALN
Procedure: as §1

TTK = TTK (Homo sapiens, UniProt P33981)
Procedure: as §1

CAMK2D = CAMK2D (Homo sapiens, UniProt Q13557)
Procedure: as §1

FGFR3(G697C) = FGFR3(G697C) (Homo sapiens, UniProt P22607, G697C)
FGFR3(G697C), sequence (P22607 whole entry G697C): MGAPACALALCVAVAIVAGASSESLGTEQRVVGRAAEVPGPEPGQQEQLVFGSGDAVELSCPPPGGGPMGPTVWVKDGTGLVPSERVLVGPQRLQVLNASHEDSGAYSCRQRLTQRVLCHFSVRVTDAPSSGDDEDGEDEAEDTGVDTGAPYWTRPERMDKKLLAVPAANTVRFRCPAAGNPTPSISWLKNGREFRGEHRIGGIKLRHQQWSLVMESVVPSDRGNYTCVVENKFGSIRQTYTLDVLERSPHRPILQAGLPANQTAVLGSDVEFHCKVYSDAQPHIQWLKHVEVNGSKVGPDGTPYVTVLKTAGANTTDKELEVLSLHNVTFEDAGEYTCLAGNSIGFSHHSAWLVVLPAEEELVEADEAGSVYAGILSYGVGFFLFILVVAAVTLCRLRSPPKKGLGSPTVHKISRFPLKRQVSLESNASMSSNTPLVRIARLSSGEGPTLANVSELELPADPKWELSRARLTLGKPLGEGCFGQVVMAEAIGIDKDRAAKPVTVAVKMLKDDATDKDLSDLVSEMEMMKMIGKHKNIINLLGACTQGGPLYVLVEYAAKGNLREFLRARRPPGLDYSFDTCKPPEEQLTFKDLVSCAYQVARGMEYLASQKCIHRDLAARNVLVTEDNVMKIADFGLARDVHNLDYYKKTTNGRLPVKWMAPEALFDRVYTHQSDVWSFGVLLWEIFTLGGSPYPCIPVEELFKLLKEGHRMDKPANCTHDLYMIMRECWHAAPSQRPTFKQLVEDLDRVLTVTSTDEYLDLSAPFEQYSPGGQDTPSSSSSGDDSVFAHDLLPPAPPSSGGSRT
Procedure: as §1

IRAK3 = IRAK3 (Homo sapiens, UniProt Q9Y616)
IRAK3, sequence (Q9Y616 whole entry): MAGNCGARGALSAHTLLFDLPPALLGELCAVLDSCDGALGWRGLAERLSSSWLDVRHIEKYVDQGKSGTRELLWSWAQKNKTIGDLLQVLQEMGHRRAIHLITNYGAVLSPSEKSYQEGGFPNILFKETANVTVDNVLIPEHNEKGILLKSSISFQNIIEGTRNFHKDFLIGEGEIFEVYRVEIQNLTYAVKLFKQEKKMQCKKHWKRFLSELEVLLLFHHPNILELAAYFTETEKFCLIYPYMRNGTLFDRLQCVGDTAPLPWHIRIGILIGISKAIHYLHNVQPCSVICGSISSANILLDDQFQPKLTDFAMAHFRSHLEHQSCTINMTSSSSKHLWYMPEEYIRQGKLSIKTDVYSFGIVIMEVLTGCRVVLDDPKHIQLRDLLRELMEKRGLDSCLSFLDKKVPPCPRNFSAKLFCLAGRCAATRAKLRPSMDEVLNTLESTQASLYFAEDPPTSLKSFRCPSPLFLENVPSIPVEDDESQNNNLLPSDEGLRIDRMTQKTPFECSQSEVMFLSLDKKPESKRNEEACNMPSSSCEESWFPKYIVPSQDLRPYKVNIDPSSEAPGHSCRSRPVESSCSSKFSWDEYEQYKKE
Procedure: as §1

HASPIN = HASPIN (Homo sapiens, UniProt Q8TF76)
Procedure: as §1

[1] = target: T4, JAK1(JH2domain-pseudokinase) (Homo sapiens, UniProt P23458)
T4 construct: JH2domain-pseudokinase
T4 sequence (P23458 whole entry): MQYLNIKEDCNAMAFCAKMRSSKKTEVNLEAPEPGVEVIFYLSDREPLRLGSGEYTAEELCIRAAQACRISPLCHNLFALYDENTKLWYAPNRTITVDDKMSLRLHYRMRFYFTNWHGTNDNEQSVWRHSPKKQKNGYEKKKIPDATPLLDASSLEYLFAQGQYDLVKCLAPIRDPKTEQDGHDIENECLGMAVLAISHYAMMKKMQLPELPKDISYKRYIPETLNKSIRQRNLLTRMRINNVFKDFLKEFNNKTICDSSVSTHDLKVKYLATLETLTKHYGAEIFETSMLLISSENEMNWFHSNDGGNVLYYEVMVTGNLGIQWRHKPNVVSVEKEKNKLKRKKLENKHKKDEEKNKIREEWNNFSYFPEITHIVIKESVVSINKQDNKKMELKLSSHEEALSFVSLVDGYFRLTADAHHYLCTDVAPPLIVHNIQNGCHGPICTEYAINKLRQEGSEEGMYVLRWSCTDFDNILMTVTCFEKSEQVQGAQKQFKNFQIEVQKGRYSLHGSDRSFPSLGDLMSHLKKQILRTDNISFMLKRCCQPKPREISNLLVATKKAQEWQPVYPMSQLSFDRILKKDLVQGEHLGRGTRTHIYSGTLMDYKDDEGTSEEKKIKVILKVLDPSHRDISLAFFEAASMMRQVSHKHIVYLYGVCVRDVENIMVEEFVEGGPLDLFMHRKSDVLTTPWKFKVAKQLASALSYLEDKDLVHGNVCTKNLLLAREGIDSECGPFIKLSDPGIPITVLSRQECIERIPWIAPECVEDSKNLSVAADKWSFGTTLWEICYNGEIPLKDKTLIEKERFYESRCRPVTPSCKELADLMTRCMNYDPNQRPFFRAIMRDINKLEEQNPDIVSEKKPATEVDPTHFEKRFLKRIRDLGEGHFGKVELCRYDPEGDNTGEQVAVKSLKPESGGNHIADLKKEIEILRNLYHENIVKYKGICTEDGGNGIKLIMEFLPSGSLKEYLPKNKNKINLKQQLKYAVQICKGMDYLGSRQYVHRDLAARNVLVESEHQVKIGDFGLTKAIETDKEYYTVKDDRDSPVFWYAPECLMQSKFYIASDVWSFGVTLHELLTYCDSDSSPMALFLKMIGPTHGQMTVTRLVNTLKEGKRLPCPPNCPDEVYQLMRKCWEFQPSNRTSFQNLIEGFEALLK
Procedure: as §1

CDK4-cyclinD1 = target: T5, CDK4-cyclinD1 (Homo sapiens, UniProt P11802)
T5 construct: cyclinD1
Procedure: as §1

[2] = target: T6, ABL1(H396P)-nonphosphorylated (Homo sapiens, UniProt P00519, H396P)
T6 construct: nonphosphorylated
Procedure: as §1

NDR1 = target: T7, NDR1 (Homo sapiens, UniProt Q15208)
T7 construct: gene STK38
Procedure: as §1

ERK4 = target: T8, ERK4 (Homo sapiens, UniProt P31152)
T8 construct: gene MAPK4
Procedure: as §1

MAP3K2 = MAP3K2 (Homo sapiens, UniProt Q9Y2U5)
Procedure: as §1

FLT3 = FLT3 (Homo sapiens, UniProt P36888)
Procedure: as §1

EGFR(L861Q) = EGFR(L861Q) (Homo sapiens, UniProt P00533, L861Q)
Procedure: as §1

[3] = target: T9, RPS6KA5(Kin.Dom.2-C-terminal) (Homo sapiens, UniProt O75582)
T9 construct: Kin.Dom.2-C-terminal
Procedure: as §1

FGFR3, sequence (P22607 whole entry): as the sequence (P22607 whole entry G697C) above, with C697G counted along it

Molecule C=C(C)[C@H]1CC=C(C)C(=O)C1 [S-carvone] has a remaining binding at 100 µM (FGFR3) of 75%, a remaining binding at 100 µM (MEK3) of 84% and a remaining binding at 100 µM (ERK2) of 76%. For the same molecule, the remaining binding at 100 µM (HIPK4) was 66%, the remaining binding at 100 µM (PRKCD) was 90% and the remaining binding at 100 µM (TRKB) was 78%. The remaining binding at 100 µM (PIK3CA(E545A)) was 70%, the remaining binding at 100 µM (TTK) was 80% and the remaining binding at 100 µM (CAMK2D) was 94%. The remaining binding at 100 µM (FGFR3(G697C)) was 75%, the remaining binding at 100 µM (IRAK3) was 100% and the remaining binding at 100 µM (HASPIN) was 74%. The remaining binding at 100 µM [1] was 58%, the remaining binding at 100 µM (CDK4-cyclinD1) was 73% and the remaining binding at 100 µM [2] was 82%. The remaining binding at 100 µM (NDR1) was 77%, the remaining binding at 100 µM (ERK4) was 89% and the remaining binding at 100 µM (MAP3K2) was 58%. The remaining binding at 100 µM (FLT3) was 71%, the remaining binding at 100 µM (EGFR(L861Q)) was 65% and the remaining binding at 100 µM [3] was 85%.
